Target: 5-HT7R / β-arrestin2 (Homo sapiens (Human), UniProt P34969)
Experiment: β-arrestin 2 BRET in HEK-293 cells transfected with 5-HT7R
Type: cell-based
Conditions: wild type 5-HT7R, intramolecular biosensor
Method: FIG. 8: Serodolin-induced ERK phosphorylation is dependent on β-arrestin 2 recruitment. (A) HEK-293 or KO β-arrestin HEK-293 cells were transiently transfected with HA-5-HT7R and stimulated with 5-CT (10 μM), Serodolin (10 μM) or Vehicle (0.1% DMSO diluted in PBS solution) used as a control for 7 min. Representative blots of three independent experiments are illustrated. (B) Quantification of p-ERK and p-c-SRC were performed using Alphascreen technology. Data are means±SEM of values obtained in three independent experiments. (C) HEK-293 cells were transiently transfected with HA-h5-HT7R with β-arrestin2 BRET biosensor (Rluc-Arrestin-YPET), then incubated with increasing doses of 5-CT, or Serodolin (10^-11 to 10^-5 M). Ligand mediated BRET changes are expressed as induced BRET changes which were generated by subtracting at each point the signal of the cells incubated with PBS (without ligand). Data were fitted using non-linear regression using GraphPad Prism software. […]
The inventors then investigated whether the Serodolin-induced β-arrestin recruitement using BRET experiments. […] After transfection of 5-HT7R-RLuc and arrestin2-YFP used as a BRET pair, the inventors evaluated the ability of 5-HT7R ligands to recruit β-arrestin. […]

Sequence of 5-HT7R / β-arrestin2 (P34969 1-432): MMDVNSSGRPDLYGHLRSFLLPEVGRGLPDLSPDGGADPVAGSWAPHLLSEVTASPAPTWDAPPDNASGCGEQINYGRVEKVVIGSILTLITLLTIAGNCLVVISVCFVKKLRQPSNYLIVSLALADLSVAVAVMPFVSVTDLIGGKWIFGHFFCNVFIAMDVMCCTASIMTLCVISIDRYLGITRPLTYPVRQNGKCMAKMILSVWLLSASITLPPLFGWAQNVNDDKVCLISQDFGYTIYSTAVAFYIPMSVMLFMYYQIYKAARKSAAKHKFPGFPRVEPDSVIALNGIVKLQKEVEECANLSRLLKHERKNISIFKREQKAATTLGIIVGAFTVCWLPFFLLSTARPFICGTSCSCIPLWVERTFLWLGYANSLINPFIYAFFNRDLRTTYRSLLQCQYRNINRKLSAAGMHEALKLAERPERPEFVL

For O=c1[nH]c2ccccc2n1CN1CCN(c2ccc(F)cc2)CC1 [Serodolin], the “BRET signal of RLuc-arrestin2-YPET biosensor” value was “concentration-dependent increase of BRET signal”.
